Laboratory results: patent publication US20170050957A1, “4-AMINO-6-(HETEROCYCLIC)PICOLINATES AND 6-AMINO-2-(HETEROCYCLIC)PYRIMIDINE-4-CARBOXYLATES AND THEIR USE AS HERBICIDES” (Dow AgroSciences LLC, priority 2013, published 2017)
Like-named read-outs stand apart in the source and are kept apart here.

Experiments:
[1] = test system: Key Grass and Sedge Weeds as well as Grass Crops; assay: Post-emergent Test II herbicidal activity (Table 16); assay type: in vivo; conditions: post-emergence, 336 h, 14 d; for pest or weed control at 35 g/ha: 35 g ai/ha; for pest or weed control at 70 g/ha: 70 g ai/ha; for pest or weed control at 140 g/ha: 140 g ai/ha
Method in brief: (§1)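 Visual injury rating (0 = none, 100% = complete kill) made 14 d after treatment, relative to untreated plants. Compounds in an acetone/DMSO/aqueous crop-oil/surfactant spray, at top rate and serial 1/2×-1/16× rates, were applied at 187 L/ha overhead to first-second true leaf plants raised 7-21 d in greenhouse.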

[2] = test system: Key Broadleaf Weed and Crop Species; assay: Post-emergent Test II herbicidal activity (Table 15); assay type: in vivo; conditions: post-emergence, 336 h, 14 d; for pest or weed control at 35 g/ha: 35 g ai/ha; for pest or weed control at 70 g/ha: 70 g ai/ha; for pest or weed control at 140 g/ha: 140 g ai/ha
Method in brief: as §1

[3] = Cyperus esculentus, yellow nutsedge (Cyperus esculentus), read-out: Visual Growth Reduction (%) 14 Days After Application, CYPES
[4] = Echinochloa crus-galli, barnyardgrass (Echinochloa crus-galli), read-out: Visual Growth Reduction (%) 14 Days After Application, ECHCG
[5] = Oryza sativa, rice (Oryza sativa), read-out: Visual Growth Reduction (%) 14 Days After Application, ORYSA
[6] = Setaria faberi, giant foxtail (Setaria faberi), read-out: Visual Growth Reduction (%) 14 Days After Application, SETFA
[7] = Triticum aestivum, wheat, spring (Triticum aestivum), read-out: Visual Growth Reduction (%) 14 Days After Application, TRZAS
[8] = Zea mays, maize, corn (Zea mays), read-out: Visual Growth Reduction (%) 14 Days After Application, ZEAMX
[9] = Abutilon theophrasti, velvetleaf (Abutilon theophrasti), read-out: Visual Growth Reduction (%) 14 Days After Application, ABUTH
[10] = Amaranthus retroflexus, redroot pigweed (Amaranthus retroflexus), read-out: Visual Growth Reduction (%) 14 Days After Application, AMARE
[11] = Brassica napus, oilseed rape, canola (Brassica napus), read-out: Visual Growth Reduction (%) 14 Days After Application, BRSNN
[12] = Chenopodium album, lambsquarters (Chenopodium album), read-out: Visual Growth Reduction (%) 14 Days After Application, CHEAL
[13] = Euphorbia heterophylla, wild poinsettia (Euphorbia heterophylla), read-out: Visual Growth Reduction (%) 14 Days After Application, EPHHL
[14] = Helianthus annuus, sunflower (Helianthus annuus), read-out: Visual Growth Reduction (%) 14 Days After Application, HELAN

Structure (SMILES): COC(=O)c1nc(-c2cc3ccoc3cc2F)nc(N)c1OC [Compound 2.05]
- pest or weed control at 35 g/ha [1, 3]: 0 to 29%
- pest or weed control at 70 g/ha [1, 3]: 0 to 29%
- pest or weed control at 140 g/ha [1, 3]: 0 to 29%
- pest or weed control at 35 g/ha [1, 4]: 0 to 29%
- pest or weed control at 70 g/ha [1, 4]: 0 to 29%
- pest or weed control at 140 g/ha [1, 4]: 0 to 29%
- pest or weed control at 35 g/ha [1, 5]: 0 to 29%
- pest or weed control at 70 g/ha [1, 5]: 0 to 29%
- pest or weed control at 140 g/ha [1, 5]: 0 to 29%
- pest or weed control at 35 g/ha [1, 6]: 0 to 29%
- pest or weed control at 70 g/ha [1, 6]: 0 to 29%
- pest or weed control at 140 g/ha [1, 6]: 0 to 29%
- pest or weed control at 35 g/ha [1, 7]: 0 to 29%
- pest or weed control at 70 g/ha [1, 7]: 0 to 29%
- pest or weed control at 140 g/ha [1, 7]: 0 to 29%
- pest or weed control at 35 g/ha [1, 8]: 0 to 29%
- pest or weed control at 70 g/ha [1, 8]: 0 to 29%
- pest or weed control at 140 g/ha [1, 8]: 0 to 29%
- pest or weed control at 35 g/ha [2, 9]: 0 to 29%
- pest or weed control at 70 g/ha [2, 9]: 0 to 29%
- pest or weed control at 140 g/ha [2, 9]: 0 to 29%
- pest or weed control at 35 g/ha [2, 10]: 85 to 94%
- pest or weed control at 70 g/ha [2, 10]: 75 to 84%
- pest or weed control at 140 g/ha [2, 10]: 95 to 100%
- pest or weed control at 35 g/ha [2, 11]: 0 to 29%
- pest or weed control at 70 g/ha [2, 11]: 0 to 29%
- pest or weed control at 140 g/ha [2, 11]: 0 to 29%
- pest or weed control at 35 g/ha [2, 12]: 0 to 29%
- pest or weed control at 70 g/ha [2, 12]: 0 to 29%
- pest or weed control at 140 g/ha [2, 12]: 45 to 59%
- pest or weed control at 35 g/ha [2, 13]: 30 to 44%
- pest or weed control at 70 g/ha [2, 13]: 30 to 44%
- pest or weed control at 140 g/ha [2, 13]: 45 to 59%
- pest or weed control at 35 g/ha [2, 14]: 0 to 29%
- pest or weed control at 70 g/ha [2, 14]: 0 to 29%
- pest or weed control at 140 g/ha [2, 14]: 30 to 44%
- melting point: 160 °C
